# Data published in the supplement of paper PMC10307832.
# Key:
# Assay in all cases: relative viability (nuclei count vs DMSO), 5 days (fraction); higher = more cells survive
# VE-821 + Lapatinib = compound: CS(=O)(=O)c1ccc(-c2cnc(N)c(C(=O)Nc3ccccc3)n2)cc1 [VE-821] + CS(=O)(=O)CCNCc1ccc(-c2ccc3ncnc(Nc4ccc(OCc5cccc(F)c5)c(Cl)c4)c3c2)o1 [Lapatinib] (partner 2 µM)
# In short: (§1)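 One day after seeding in 1536-well plates, lung cancer cell lines were dosed by pin tool. Dosing was either single-drug or a fixed anchor-drug dose plus five library-drug doses (not always all listed) in √10 steps. After 5 days, nuclei were stained in one fix-and-stain step and counted on 4× images, and relative viability is the nuclei count of treated wells over that of vehicle wells, given as the median of duplicate plates.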
# Ruxolitinib + Trametinib = compound: N#CC[C@H](C1CCCC1)n1cc(-c2ncnc3[nH]ccc23)cn1 [Ruxolitinib] + CC(=O)Nc1cccc(-n2c(=O)n(C3CC3)c(=O)c3c(Nc4ccc(I)cc4F)n(C)c(=O)c(C)c32)c1 [Trametinib] (partner 0.02 µM)
# In short: as §1
# [1] = compound: N#CC[C@H](C1CCCC1)n1cc(-c2ncnc3[nH]ccc23)cn1 [Ruxolitinib] + CC(=O)c1c(C)c2cnc(Nc3ccc(N4CCNCC4)cn3)nc2n(C2CCCC2)c1=O [Palbociclib] (partner 0.5 µM)
# In short: as §1
# Ruxolitinib + Crizotinib = compound: N#CC[C@H](C1CCCC1)n1cc(-c2ncnc3[nH]ccc23)cn1 [Ruxolitinib] + C[C@@H](Oc1cc(-c2cnn(C3CCNCC3)c2)cnc1N)c1c(Cl)ccc(F)c1Cl [Crizotinib] (partner 1 µM)
# In short: as §1
Cell Line,relative viability (VE-821 + Lapatinib; first compound 0.08 µM),relative viability (VE-821 + Lapatinib; first compound 0.253 µM),relative viability (VE-821 + Lapatinib; first compound 0.8 µM),relative viability (VE-821 + Lapatinib; first compound 2.53 µM),relative viability (VE-821 + Lapatinib; first compound 8 µM),relative viability (Ruxolitinib + Trametinib; first compound 0.08 µM),relative viability (Ruxolitinib + Trametinib; first compound 0.253 µM),relative viability (Ruxolitinib + Trametinib; first compound 0.8 µM),relative viability (Ruxolitinib + Trametinib; first compound 2.53 µM),relative viability (Ruxolitinib + Trametinib; first compound 8 µM),relative viability ([1]; first compound 0.08 µM),relative viability ([1]; first compound 0.253 µM),relative viability ([1]; first compound 0.8 µM),relative viability ([1]; first compound 2.53 µM),relative viability ([1]; first compound 8 µM),relative viability (Ruxolitinib + Crizotinib; first compound 0.08 µM),relative viability (Ruxolitinib + Crizotinib; first compound 0.253 µM),relative viability (Ruxolitinib + Crizotinib; first compound 0.8 µM),relative viability (Ruxolitinib + Crizotinib; first compound 2.53 µM),relative viability (Ruxolitinib + Crizotinib; first compound 8 µM)
NCI-H647,1.15,0.884,1,1.16,0.535,0.607,0.437,0.523,0.182,0.48,0.523,0.443,0.44,0.344,0.346,1.18,1.12,1.13,0.852,0.524
NCI-H23,1.19,1.07,1.27,0.989,0.394,0.371,0.354,0.436,0.241,0.35,0.538,0.485,0.604,0.426,0.34,0.457,0.527,0.71,0.43,0.488
H3255,0.229,0.256,0.378,0.241,0.264,–,0.548,0.725,0.465,0.648,0.307,0.297,0.315,0.266,0.263,–,0.752,1.12,0.806,0.849
NCI-H1651,0.93,0.815,0.785,1.04,0.74,0.722,0.798,0.821,0.767,0.859,0.506,0.496,0.524,0.502,0.525,0.8,0.893,0.847,0.779,0.842
NCI-H1734,1.43,1.04,1.03,1.16,0.73,0.66,0.647,0.635,0.462,0.607,0.374,0.299,0.337,0.345,0.354,0.66,0.721,0.795,0.633,0.559
CAL-12T,0.656,0.7,0.637,0.839,0.456,0.341,0.375,0.376,0.241,0.31,0.316,0.334,0.461,0.363,0.223,0.914,0.586,0.81,0.481,0.576
NCI-H1993,0.947,0.837,0.75,0.784,0.826,0.433,0.734,0.573,0.49,0.443,0.519,0.552,0.807,0.68,0.707,0.785,0.801,0.873,0.61,0.935
NCI-H1755,1.09,0.997,0.961,0.981,0.861,0.803,0.777,0.796,0.549,0.694,0.505,0.468,0.466,0.452,0.391,0.87,0.897,0.887,0.784,0.476
SK-LU-1,0.907,0.668,0.625,0.582,0.525,0.5,0.578,0.548,0.3,0.408,0.426,0.416,0.421,0.374,0.336,1.01,1,1.08,0.847,0.584
NCI-H358,0.445,0.376,0.486,0.553,0.489,0.144,0.12,0.138,0.0972,0.148,0.167,0.125,0.16,0.14,0.127,0.677,0.577,0.686,0.512,0.417
HCC-78,1.06,0.795,0.371,1.03,0.255,0.679,0.7,0.609,0.45,0.517,0.422,0.481,0.431,0.507,0.492,0.305,0.273,0.308,0.322,0.324
LCLC-97TM1,0.75,0.716,0.669,0.848,0.393,0.176,0.157,0.199,0.113,0.217,0.235,0.185,0.213,0.192,0.213,0.361,0.393,0.487,0.472,0.275
NCI-H661,0.592,0.427,0.396,0.486,0.381,0.661,0.619,0.685,0.432,0.52,0.425,0.436,0.427,0.417,0.381,0.941,1.02,0.941,–,0.841
NCI-H1944,1.09,0.811,0.748,0.935,0.386,0.391,0.386,0.422,0.304,0.369,0.33,0.321,0.375,0.31,0.318,0.99,0.955,0.998,0.928,1.02
SW 1573,1.12,1.07,1.12,0.58,0.989,0.533,0.545,0.616,0.486,0.574,0.436,0.382,0.411,0.546,0.299,0.887,0.75,0.969,0.791,0.733
NCI-H1975,0.884,0.531,0.856,0.948,0.669,0.277,0.432,0.412,0.269,0.152,0.492,0.395,0.612,0.469,0.277,1.07,1.01,1.05,0.858,0.547
